# Details: in acetone
smiles,measurement,setting,value
CC[C@H](C)C(=O)O[C@H]1C[C@@H](C)C=C2C=C[C@H](C)[C@H](CC[C@@H]3C[C@@H](O)CC(=O)O3)[C@H]21,solubility (mole fraction),278.65 K,0.00637
same,solubility (mole fraction),283.2 K,0.00742
same,solubility (mole fraction),288.2 K,0.00869
same,solubility (mole fraction),293.25 K,0.0104
same,solubility (mole fraction),298.75 K,0.0123
same,solubility (mole fraction),303.95 K,0.0157
same,solubility (mole fraction),308.25 K,0.0183
same,solubility (mole fraction),313.25 K,0.0226
same,solubility (mole fraction),318.15 K,0.0272
same,solubility (mole fraction),322.65 K,0.0321

# From BigSolDB 2.1
